Patent publication US6528532B1, “Urea derivatives as HIV aspartyl protease inhibitors” (Pharmacor Inc., priority 2002, dated 2003)

Experiments:
HIV protease = HIV protease (Human immunodeficiency virus type 1 group M subtype B, UniProt P04585); assay: Enzymatic (FRET fluorometric) assay for determining the inhibition constant (Ki) of compounds targeting the HIV protease; assay type: biochemical; conditions: FRET substrate (EDANS/DABCYL), equation of Henderson; read-out: Ki
Excerpt: Enzymatic Assay for Determining the Inhibition Constant (Ki) of Synthetic Compounds Targeting the HIV Protease
This is a fluorometric assay based on the cleavage by protease of a substrate carrying a donor group (EDANS) and an acceptor group (DABCYL) on each side of the cleavage site, interacting together through fluorescence resonance energy transfer (FRET) as described by Matayoshi et al. (Science 247:[…], 1990).
After calculation of Vo and Vi, the inhibition constant (Ki) of the compound is determined using the equation of Henderson: [formula]
where Vo=the enzyme's initial velocity
Vi=the enzyme velocity in the presence of the inhibitory compound,
[I]=inhibitor concentration, [S]=substrate concentration,
Km=Michaelis-Menten constant and Kiapp=apparent Ki
Graphs are traced and the Ki determined using GraphPad Prism software v. 3.0.

in vitro = assay type: cell-based; conditions: human
Description: To evaluate the EC50 of our compounds, various drug concentrations are incubated with the infected cell for six days and then the metabolic activity of the cells is monitored by the MTT assay. (See A. J. Japour et al, Antimicrobial Agents and Chemotherapy, 37, 1095-1101, 1993 and R. Pauwels et al. Journal of Virological Methods, 20, 309-321, 1988).
We use the laboratory viral strain NL4.3 as wild type virus and the cell line used is MT-4 which is a T-cell line highly sensitive to HIV-1. We also use some WT clinical strains. To address the resistance issue we assay the inhibitors with NL4.3 mutants which are designed to be resistant to specific commercially available inhibitors.
The same MTT assay is used to evaluate the CCIC50 (cell culture IC50) of our compounds except that the virus is omitted.

Row | Compound | Ki (HIV protease) | IC50 at 6 days (in vitro)
1 | Cc1ccc(S(=O)(=O)N(CC(C)C)[C@H](CO)CCCCNC(=O)N(Cc2ccccc2)Cc2cccc(N)c2)cc1 [Example 63, (2S) 2-N-Isobutyl-2-N-(4-methylbenzenesulfonyl)-6-N-[N′-(3-aminobenzyl)-N′-benzylaminocarbonyl]-2,6-diaminohexanol] | 54 nM | –
2 | Cc1ccc(S(=O)(=O)N(CC(C)C)[C@H](CO)CCCCNC(=O)N(Cc2ccccc2)Cc2ccc(N)cc2)cc1 [Example 64, (2S) 2-N-Isobutyl-2-N-(4-methylbenzenesulfonyl)-6-N-[N′-(4-aminobenzyl)-N′-benzylaminocarbonyl]-2,6-diaminohexanol] | 21 nM | –
3 | CC(C)CN([C@H](CO)CCCCNC(=O)N[C@@H](Cc1c[nH]c2ccccc12)C(=O)O)S(=O)(=O)c1ccc(N)cc1 [Example 65, (2S,2′S) 2-N-(4-Aminobenzenesulfonyl)-2-N-isobutyl-6-N-(S-tryptophanyl-N′-carbonyl)-2,6-diaminohexanol] | > 300 nM | –
4 | CC(C)CN([C@H](CO)CCCCNC(=O)N(Cc1ccc(F)cc1)C1CCCCC1)S(=O)(=O)c1ccc(N)cc1 [Example 66, (2S) 2-N-(4-Aminobenzenesulfonyl)-2-N-isobutyl-6-N-[N′-cyclohexyl-N′-(4-fluorobenzyl)aminocarbonyl]-2,6-diaminohexanol] | 175 nM | –
5 | CC(C)CN([C@H](CO)CCCCNC(=O)N(Cc1ccccc1)Cc1ccc(F)cc1)S(=O)(=O)c1ccc(N)cc1 [Example 68, (2S) 2-N-(4-Aminobenzenesulfonyl)-2-N-isobutyl-6-N-[N′-benzyl-N′-(4-fluorobenzyl)aminocarbonyl]-2,6-diaminohexanol] | 3.3 nM | –
6 | CC(C)CN([C@H](CO)CCCCNC(=O)N(CCc1cccs1)Cc1ccc(F)cc1)S(=O)(=O)c1ccc(N)cc1 [Example 69, (2S) 2-N-(4-Aminobenzenesulfonyl)-2-N-isobutyl-6-N-[N′-(4-fluorobenzyl)-N′-(2-thiophenethyl)aminocarbonyl]-2,6-diaminohexanol] | 34 nM | –
7 | CC(C)CN([C@H](CO)CCCCNC(=O)N(Cc1ccc(F)cc1)Cc1cccnc1)S(=O)(=O)c1ccc(N)cc1 [Example 70, (2S) 2-N-(4-Aminobenzenesulfonyl)-2-N-isobutyl-6-N-[N′-(4-fluorobenzyl)-N′-(3-picolyl)aminocarbonyl]-2,6-diaminohexanol] | 30 nM | –
8 | CC(C)CN([C@H](CO)CCCCNC(=O)N(Cc1cccc(F)c1)C1CCCCC1)S(=O)(=O)c1ccc(N)cc1 [Example 71, (2S) 2-N-(4-Aminobenzenesulfonyl)-2-N-isobutyl-6-N-[N′-cyclohexyl-N′-(3-fluorobenzyl)aminocarbonyl]-2,6-diaminohexanol] | 235 nM | –
9 | CC(C)CN([C@H](CO)CCCCNC(=O)NCc1ccc2c(c1)OCO2)S(=O)(=O)c1ccc(N)cc1 [Example 74, (2S) 2-N-(4-Aminobenzenesulfonyl)-2-N-isobutyl-6-N-piperonylaminocarbonyl-2,6-diaminohexanol] | 22 nM | –
10 | CC(C)CN([C@H](CO)CCCCNC(=O)N(Cc1ccc2c(c1)OCO2)Cc1cccs1)S(=O)(=O)c1ccc(N)cc1 [Example 75, (2S) 2-N-(4-Aminobenzenesulfonyl)-2-N-isobutyl-6-N-[N′-(2-thiophenemethyl)-N′-piperonylaminocarbonyl]-2,6-diaminohexanol] | 2 nM | –
11 | CC(C)CN([C@H](CO)CCCCNC(=O)N(Cc1ccsc1)Cc1ccc2c(c1)OCO2)S(=O)(=O)c1ccc(N)cc1 [Example 81, (2S) 2-N-(4-Aminobenzenesulfonyl)-2-N-isobutyl-6-N-[N′-(3-thiophenemethyl)-N′-piperonylaminocarbonyl]-2,6-diaminohexanol] | 6.3 nM | –
12 | COc1ccc(CN(Cc2ccc3c(c2)OCO3)C(=O)NCCCC[C@@H](CO)N(CC(C)C)S(=O)(=O)c2ccc(N)cc2)cc1 [Example 83, (2S) 2-N-(4-Aminobenzenesulfonyl)-2-N-isobutyl-6-N-[N′-(4-methoxybenzyl)-N′-piperonylaminocarbonyl]-2,6-diaminohexanol] | 2.2 nM | –
13 | CC(C)CN([C@H](CO)CCCCNC(=O)N(Cc1ccc([N+](=O)[O-])cc1)Cc1ccc2c(c1)OCO2)S(=O)(=O)c1ccc(N)cc1 [Example 84, (2S) 2-N-(4-Aminobenzenesulfonyl)-2-N-isobutyl-6-N-[N′-(4-nitrobenzyl)-N′-piperonylaminocarbonyl]-2,6-diaminohexanol] | 2 nM | –
14 | CC(C)CCN([C@H](CO)CCCCNC(=O)N(Cc1ccc([N+](=O)[O-])cc1)Cc1ccc2c(c1)OCO2)S(=O)(=O)c1ccc(N)cc1 [Example 89, (2S) 2-N-(4-Aminobenzenesulfonyl)-2-N-(3-methylbutyl)-6-N-[N′-(4-nitrobenzyl)-N′-piperonylaminocarbonyl]-2,6-diaminohexanol] | 2.2 nM | –
15 | CC(C)CN([C@H](CO)CCCCNC(=O)N(Cc1ccc(C(F)(F)F)cc1)Cc1cccc2c1OCO2)S(=O)(=O)c1ccc(N)cc1 [Example 90, (2S) 2-N-(4-Aminobenzenesulfonyl)-2-N-isobutyl-6-N-[N′-(4-trifluoromethylbenzyl)-N′-(2,3-methylenedioxy)benzylaminocarbonyl]-2,6-diaminohexanol] | 8.9 nM | –
16 | CC(C)CN([C@H](CO)CCCCNC(=O)N(Cc1ccc(C(F)(F)F)cc1)Cc1ccc2c(c1)OCO2)S(=O)(=O)c1ccc(N)cc1 [Example 92, (2S) 2-N-(4-Aminobenzenesulfonyl)-2-N-isobutyl-6-N-[N′-(4-trifluoromethylbenzyl)-N′-piperonylaminocarbonyl]-2,6-diaminohexanol] | 2.5 nM | –
17 | CC(C)CCN([C@H](CO)CCCCNC(=O)N(Cc1ccc(C(F)(F)F)cc1)Cc1ccc2c(c1)OCO2)S(=O)(=O)c1ccc(N)cc1 [Example 94, (2S) 2-N-(4-Aminobenzenesulfonyl)-2-N-(3-methylbutyl)-6-N-[N′-(4-trifluoromethylbenzyl)-N′-piperonylaminocarbonyl]-2,6-diaminohexanol] | 3 nM | –
18 | CC(C)CCN([C@H](CO)CCCCNC(=O)N(Cc1ccncc1)Cc1ccc2c(c1)OCO2)S(=O)(=O)c1ccc(N)cc1 [Example 95, (2S) 2-N-(4-Aminobenzenesulfonyl)-2-N-(3-methylbutyl)-6-N-[N′-(4-picolyl)-N′-piperonylaminocarbonyl]-2,6-diaminohexanol] | – | 28800 nM
19 | CCC(C)CN(C(CO)CCCCNC(=O)N(Cc1ccccc1)Cc1cccc2c1OCO2)S(=O)(=O)c1ccc(N)cc1 [Example 97, (2S) 2-N-(4-Aminobenzenesulfonyl)-2-N-(2-methylbutyl)-6-N-[N′-benzyl-N′-(2,3-methylenedioxy)benzylaminocarbonyl]-2,6-diaminohexanol] | 21 nM | –
20 | CCC(C)CN(C(CO)CCCCNC(=O)N(Cc1ccc2c(c1)OCO2)Cc1cccs1)S(=O)(=O)c1ccc(N)cc1 [Example 99, (2S) 2-N-(4-Aminobenzenesulfonyl)-2-N-(2-methylbutyl)-6-N-[N′-(2-thiophenemethyl)-N′-piperonylaminocarbonyl]-2,6-diaminohexanol] | 24 nM | –
21 | CC(C)CCN([C@H](CO)CCCCNC(=O)N(Cc1ccc(F)cc1)Cc1ccc2c(c1)OCO2)S(=O)(=O)c1ccc(N)cc1 [Example 102, (2S) 2-N-(4-Aminobenzenesulfonyl)-2-N-(3-methylbutyl)-6-N-[N′-(4-fluorobenzyl)-N′-piperonylaminocarbonyl]-2,6-diaminohexanol] | – | 24400 nM
